Results published in ChEMBL document CHEMBL1201862, “PubChem BioAssay data set” (2004).
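96-well plates; 48 h exposure; 5 concentrations. Endpoints by linear interpolation between flanking doses. Not reached: highest tested concentration assigned. GI50 marks 50% less growth.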 Calls of active or inactive are those of the source. Rule as the data show it: active = GI50 up to about 1.1 µM and inactive = higher.

Key:
Experiment in all cases: NCI-60 cell line screen, 48 h
NCI-H23 = system: NCI-H23
DU-145 = system: DU-145
SNB-75 = system: SNB-75
SNB-19 = system: SNB-19
T47D = system: T47D
OVCAR-5 = system: OVCAR-5
RPMI-8226 = system: RPMI-8226
SK-MEL-5 = system: SK-MEL-5
RXF 393 = system: RXF 393
HOP-62 = system: HOP-62
NCI-H460 = system: NCI-H460
IGROV-1 = system: IGROV-1
MOLT-4 = system: MOLT-4
EKVX = system: EKVX
HCT-15 = system: HCT-15
COLO 205 = system: COLO 205
SW-620 = system: SW-620
OVCAR-8 = system: OVCAR-8
KM12 = system: KM12
TK-10 = system: TK-10
UACC-62 = system: UACC-62
MDA-N = system: MDA-N
Malme-3M = system: Malme-3M
CAKI-1 = system: CAKI-1
UO-31 = system: UO-31
A549 = system: A549
HCC 2998 = system: HCC 2998
SF-539 = system: SF-539
SR = system: SR
ACHN = system: ACHN
HL-60 = system: HL-60
SF-295 = system: SF-295
K562 = system: K562
PC-3 = system: PC-3
HT-29 = system: HT-29
NCI-H522 = system: NCI-H522
UACC-257 = system: UACC-257
786-0 = system: 786-0
NCI/ADR-RES = system: NCI/ADR-RES
CCRF-CEM = system: CCRF-CEM
NCI-H226 = system: NCI-H226
BT-549 = system: BT-549
OVCAR-3 = system: OVCAR-3
MCF7 = system: MCF7
MDA-MB-435 = system: MDA-MB-435
SN12C = system: SN12C
SK-MEL-28 = system: SK-MEL-28
Hs-578T = system: Hs-578T
LOX IMVI = system: LOX IMVI
MDA-MB-231 = system: MDA-MB-231
U-251 = system: U-251
SF-268 = system: SF-268
HCT-116 = system: HCT-116

Measured: GI50

Cc1nc2ccc(C(F)(F)F)cc2nc1NCc1ccc(Cl)c(Cl)c1
12.7 µM: HCT-15
inactive: NCI-H23 16 µM | DU-145 17.9 µM | SNB-75 12.9 µM | SNB-19 18.4 µM | OVCAR-5 13.1 µM | RPMI-8226 17.1 µM | SK-MEL-5 19.6 µM | RXF 393 12.5 µM | HOP-62 14.4 µM | NCI-H460 32.3 µM | IGROV-1 16.6 µM | MOLT-4 15.6 µM | EKVX 14.1 µM | COLO 205 15.4 µM | SW-620 18.9 µM | OVCAR-8 17.2 µM | KM12 14.2 µM | UACC-62 3.28 µM | MDA-N 17.3 µM | Malme-3M 17.2 µM | CAKI-1 18.8 µM | UO-31 15.9 µM | A549 16.4 µM | HCC 2998 10.5 µM | SF-539 17.5 µM | SR 14.8 µM | ACHN 14.8 µM | HL-60 16.7 µM | SF-295 17.3 µM | K562 20.4 µM | PC-3 12.9 µM | HT-29 15 µM | NCI-H522 14.8 µM | UACC-257 15.9 µM | 786-0 16.6 µM | NCI/ADR-RES 19.9 µM | CCRF-CEM 15.5 µM | NCI-H226 18.1 µM | BT-549 20.2 µM | OVCAR-3 13.3 µM | MCF7 10 µM | MDA-MB-435 17.4 µM | SN12C 17.2 µM | SK-MEL-28 18.4 µM | Hs-578T 23.6 µM | LOX IMVI 15.3 µM | MDA-MB-231 15.8 µM | U-251 16.5 µM | SF-268 16 µM | HCT-116 16.4 µM
active: T47D 0.735 µM | TK-10 < 0.01 µM
